Source: patent publication US20180200257A1, “METHODS FOR THE TREATMENT OF INFLAMMATORY DISORDERS” (Galapagos NV, priority 2015, published 2018)

Test system: subjects with moderately to severely active RA who have an inadequate response to methotrexate (MTX)
Assay: Study 1 (add-on to MTX) - ACR responses (ACR20/50/70)
Type: in vivo, human
From the text: The terms “ACR20”, “ACR50” and “ACR70” as used herein are scores which indicate how much a patient's rheumatoid arthritis has improved according to criteria set out by the American College of Rheumatology (ACR). The ACR score represents a percentage. An ACR20 score means that a person's RA has improved by 20%, an ACR50 score means it has improved by 50%, and an ACR70 score means it has improved by 70%. Specifically, to qualify for an ACR20 score, a person with RA must have at least 20% fewer tender joints and at least 20% fewer swollen joints. In addition the patient must show a 20% improvement in at least three of the following five areas: the person's overall (global) assessment of his or her own RA, the physician's global assessment of the person's RA, the person's assessment of his or her own pain, the person's assessment of his or her own physical functioning, and the results of an erythrocyte sedimentation rate or C-reactive protein (CRP) blood test (both of which test for inflammation). ACR50 and ACR70 scores use the same criteria but require 50% and 70% improvement, respectively, (Felson et al., 1993). In the data presented herein the CRP blood test is used.
Double-blind, placebo-controlled add on study in subjects with moderately to severely active RA who have an inadequate response to methotrexate (MTX) (oral or parenteral).
595 subjects randomized to one of 6 dose regimens of Compound 1 (dosed as [Compound 1:HCl:3H2O]) (3 dose levels administered either once or twice daily) or placebo on top of each subject's stable dose of MTX.
Compound 1 (dosed as [Compound 1:HCl:3H2O]) is dosed for twelve weeks once daily (q.d.) (50 mg, 100 mg or 200 mg) or twice daily (b.i.d.) (25 mg, 50 mg or 100 mg); or placebo.
At Week 12, the subjects on placebo who have not achieved 20% improvement in swollen joint count (SJC66) and tender joint count (TJC68) are re-randomized automatically to receive Compound 1 (dosed as a [Compound 1:HCl:3H2O]) either at 100 mg q.d. or 50 mg b.i.d. doses in a blinded fashion; subjects on 50 mg q.d. who have not achieved 20% improvement in SJC66 and TJC68 will be assigned to 100 mg q.d. and subjects on 25 mg b.i.d. that have not achieved a 20% improvement in SJC66 and TJC68 will be assigned to 50 mg b.i.d. Subjects who switch treatment at week 12 are handled as if they discontinued at week 12 for the purpose of statistical analysis, whereas subjects in the other groups will maintain their randomized treatment until Week 24.
The American College of Rheumatology (ACR) composite score, which evaluates clinical improvement relative to an initial assessment, is a commonly accepted efficacy end point for clinical trials in patients with rheumatoid arthritis. The ACR score correspond to a percentage improvement in pre-set parameters, and therefore measures the evolution of the disease in a patient. For example, ACR20 denotes at least 20% improvement in tender and swollen joint counts and in three of the following end points: global assessment by the patient, global assessment by the doctor, C reactive protein (CRP), patient's pain Visual Analogue Scale and Health Assessment Questionnaire Score. The number of swollen joints, ESR and CRP correlate with radiographic progression of joint damage, whereas tender joint counts, as well as global assessments by doctors and patients, and patients' reports of pain, are sensitive to change in clinical outcomes. Physical function, as assessed by the Health Assessment Questionnaire Score, is a potent predictor of the risk of disability in rheumatoid arthritis (Felson and American College of Rheumatology Committee to Reevaluate Improvement Criteria, 2007; Felson et al., 1993).
In particular, the list of parameters used to assess ACR score can be found in the Table XCVI below and the results of the ACR responses at week 12 via either NRI or LOCF are shown in the tables below. The Hommel-corrected p-value for the pairwise comparisons of each group with placebo is shown. […]

[1] = 2 × 25 mg b.i.d., week 2, 12 weeks results
[2] = 2 × 25 mg b.i.d., week 2, 24 weeks results
[3] = 2 × 25 mg b.i.d., week 4, 12 weeks results
[4] = 2 × 25 mg b.i.d., week 4, 24 weeks results
[5] = 2 × 25 mg b.i.d., week 8, 12 weeks results
[6] = 2 × 25 mg b.i.d., week 8, 24 weeks results
[7] = 2 × 25 mg b.i.d., week 12, 12 weeks results
[8] = 2 × 25 mg b.i.d., week 12, 24 weeks results
[9] = 2 × 25 mg b.i.d., week 16, 24 weeks results
[10] = 2 × 25 mg b.i.d., week 20, 24 weeks results
[11] = 2 × 25 mg b.i.d., week 24, 24 weeks results
[12] = 2 × 25 mg b.i.d., at week 1, 12 weeks results
[13] = 2 × 25 mg b.i.d., at week 1, 24 weeks results
[14] = 2 × 50 mg b.i.d., week 2, 12 weeks results
[15] = 2 × 50 mg b.i.d., week 2, 24 weeks results
[16] = 2 × 50 mg b.i.d., week 4, 12 weeks results
[17] = 2 × 50 mg b.i.d., week 4, 24 weeks results
[18] = 2 × 50 mg b.i.d., week 8, 12 weeks results
[19] = 2 × 50 mg b.i.d., week 8, 24 weeks results

`O=C(Nc1nc2cccc(-c3ccc(CN4CCS(=O)(=O)CC4)cc3)n2n1)C1CC1` [Compound 1, cyclopropanecarboxylic acid {5-[4-(1,1-dioxo-thiomorpholin-4-ylmethyl)-phenyl]-[1,2,4]triazolo[1,5-a]pyridin-2-yl}-amide] was tested, and the “ACR70 (NRI)” value (200 mg q.d., week 8, 12 weeks results) was 18.6%, the “ACR20 (LOCF)” value [1] was 27.9% and the “ACR20 (NRI)” value [1] was 29.1%. The “ACR50 (LOCF)” value [1] was 7.0%, the “ACR50 (NRI)” value [1] was 7.0% and the “ACR70 (LOCF)” value [1] was 2.3%. The “ACR70 (NRI)” value [1] was 2.3%, the “ACR20 (LOCF)” value [2] was 29.1% and the “ACR20 (NRI)” value [2] was 29.1%. For the same molecule, the “ACR50 (LOCF)” value [2] was 7.0%, the “ACR50 (NRI)” value [2] was 7.0% and the “ACR70 (LOCF)” value [2] was 2.3%. The “ACR70 (NRI)” value [2] was 2.3%, the “ACR20 (LOCF)” value [3] was 44.2% and the “ACR20 (NRI)” value [3] was 45.3%. For the same molecule, the “ACR50 (LOCF)” value [3] was 16.3%, the “ACR50 (NRI)” value [3] was 15.1% and the “ACR70 (LOCF)” value [3] was 5.8%. For the same molecule, the “ACR70 (NRI)” value [3] was 5.8%, the “ACR20 (LOCF)” value [4] was 46.5% and the “ACR20 (NRI)” value [4] was 45.3%. The “ACR50 (LOCF)” value [4] was 16.3%, the “ACR50 (NRI)” value [4] was 15.1% and the “ACR70 (LOCF)” value [4] was 5.8%. For the same molecule, the “ACR70 (NRI)” value [4] was 5.8%, the “ACR20 (LOCF)” value [5] was 58.1% and the “ACR20 (NRI)” value [5] was 58.1%. The “ACR50 (LOCF)” value [5] was 25.6%, the “ACR50 (NRI)” value [5] was 25.6% and the “ACR70 (LOCF)” value [5] was 8.1%. The “ACR70 (NRI)” value [5] was 9.3%, the “ACR20 (LOCF)” value [6] was 59.3% and the “ACR20 (NRI)” value [6] was 58.1%. The “ACR50 (LOCF)” value [6] was 25.6%, the “ACR50 (NRI)” value [6] was 25.6% and the “ACR70 (LOCF)” value [6] was 9.3%. For the same molecule, the “ACR70 (NRI)” value [6] was 9.3%, the “ACR20 (LOCF)” value [7] was 58.1% and the “ACR20 (NRI)” value [7] was 57.0%. The “ACR50 (LOCF)” value [7] was 29.1%, the “ACR50 (NRI)” value [7] was 27.9% and the “ACR70 (LOCF)” value [7] was 14.0%. The “ACR70 (NRI)” value [7] was 14.0%, the “ACR20 (LOCF)” value [8] was 59.3% and the “ACR20 (NRI)” value [8] was 57.0%. The “ACR50 (LOCF)” value [8] was 29.1%, the “ACR50 (NRI)” value [8] was 27.9% and the “ACR70 (LOCF)” value [8] was 14.0%. For the same molecule, the “ACR70 (NRI)” value [8] was 14.0%, the “ACR20 (LOCF)” value [9] was 55.8% and the “ACR20 (NRI)” value [9] was 52.3%. For the same molecule, the “ACR50 (LOCF)” value [9] was 31.4%, the “ACR70 (LOCF)” value [9] was 10.5% and the “ACR20 (LOCF)” value [10] was 58.1%. The “ACR20 (NRI)” value [10] was 52.3%, the “ACR50 (LOCF)” value [10] was 41.9% and the “ACR70 (LOCF)” value [10] was 11.6%. The “ACR20 (LOCF)” value [11] was 62.8%, the “ACR20 (NRI)” value [11] was 55.8% and the “ACR50 (LOCF)” value [11] was 38.4%. For the same molecule, the “ACR70 (LOCF)” value [11] was 22.1%, the “ACR20 (LOCF)” value [12] was 17.4% and the “ACR20 (NRI)” value [12] was 17.4%. The “ACR50 (LOCF)” value [12] was 2.3%, the “ACR50 (NRI)” value [12] was 3.5% and the “ACR70 (LOCF)” value [12] was 1.2%. The “ACR70 (NRI)” value [12] was 1.2%, the “ACR20 (LOCF)” value [13] was 17.4% and the “ACR20 (NRI)” value [13] was 17.4%. For the same molecule, the “ACR50 (LOCF)” value [13] was 3.5%, the “ACR50 (NRI)” value [13] was 3.5% and the “ACR70 (LOCF)” value [13] was 2.4%. The “ACR70 (NRI)” value [13] was 1.2%, the “ACR20 (LOCF)” value [14] was 40.0% and the “ACR20 (NRI)” value [14] was 41.2%. For the same molecule, the “ACR50 (LOCF)” value [14] was 11.8%, the “ACR50 (NRI)” value [14] was 11.8% and the “ACR70 (LOCF)” value [14] was 5.9%. For the same molecule, the “ACR70 (NRI)” value [14] was 5.9%, the “ACR20 (LOCF)” value [15] was 41.2% and the “ACR20 (NRI)” value [15] was 41.2%. For the same molecule, the “ACR50 (LOCF)” value [15] was 11.8%, the “ACR50 (NRI)” value [15] was 11.8% and the “ACR70 (LOCF)” value [15] was 5.9%. For the same molecule, the “ACR70 (NRI)” value [15] was 5.9%, the “ACR20 (LOCF)” value [16] was 45.9% and the “ACR20 (NRI)” value [16] was 44.7%. The “ACR50 (LOCF)” value [16] was 20.0%, the “ACR50 (NRI)” value [16] was 17.6% and the “ACR70 (LOCF)” value [16] was 9.4%. For the same molecule, the “ACR70 (NRI)” value [16] was 9.4%, the “ACR20 (LOCF)” value [17] was 47.1% and the “ACR20 (NRI)” value [17] was 45.3%. The “ACR50 (LOCF)” value [17] was 20.0%, the “ACR50 (NRI)” value [17] was 17.6% and the “ACR70 (LOCF)” value [17] was 9.4%. The “ACR70 (NRI)” value [17] was 9.4%, the “ACR20 (LOCF)” value [18] was 55.3% and the “ACR20 (NRI)” value [18] was 54.1%. The “ACR50 (LOCF)” value [18] was 32.9%, the “ACR50 (NRI)” value [18] was 32.9% and the “ACR70 (LOCF)” value [18] was 14.1%. For the same molecule, the “ACR70 (NRI)” value [18] was 14.1%, the “ACR20 (LOCF)” value [19] was 55.3% and the “ACR20 (NRI)” value [19] was 54.1%. The “ACR50 (LOCF)” value [19] was 32.9%, the “ACR50 (NRI)” value [19] was 32.9% and the “ACR70 (LOCF)” value [19] was 14.1%.
